Results taken from patent US8802705B2, “Pharmaceutical containing PPAR delta agonist” (Senju Pharmaceutical Co., Ltd., priority 2007, dated 2014).

Tested on: Normal human corneal epithelial cells
Assay: Effect on increase of cell number of normal human corneal epithelial cells (Experimental Example 1, Cell Counting Kit-8)
Type: cell-based
Conditions: for cell number increase rate: 24 hr stimulation, relative to non-addition group = 100%, mean ± SD, N = 3-4
Protocol: Normal human corneal epithelial cells (KURABO) were used.
As a test substance, [3-[2-[4-isopropyl-2-(4-trifluoromethyl)phenyl-5-thiazolyl]ethyl]-5-methyl-1,2-benzisoxazol-6-yl]oxyacetic acid (hereinafter to be referred to as compound A) was used. Compound A was dissolved in ethanol (Wako Pure Chemical Industries, Ltd.) to a concentration 200-fold of the final concentration in a culture medium, and the solution was stored at −80° C. until immediately before use.
As a cell culture medium for consideration of the cell number-increasing effect by compound A, a culture medium (basal medium) obtained by adding insulin, hydrocortisone and transferrin contained in HCGS growth additive set (KURABO) to EpiLife (KURABO) was used.
Normal human corneal epithelial cells cryopreserved in liquid nitrogen were thawed and the cell number was counted. The total amount thereof was transferred to EpiLife added with all of the HCGS growth additive set (insulin, epidermal growth factor mEGF derived from mouse, hydrocortisone, transferrin, bovine brain hypophysis extract) (4 mL, complete medium), and suspended well therein. The cell suspension was seeded on a fibronectin-coated 24 well plate (Becton Dickinson) at a cell number of 2×10^4 cells/500 μL/well (1×10^4 cells/cm^2 since bottom area was 2 cm^2).
After completion of cell seeding, the culture plate was incubated in an incubator set to 37° C., 5% CO2, 95% air and 100% humidity for 24 hr, and the culture medium was changed to 400 μL of the basal medium (EpiLife added with insulin, hydrocortisone and transferrin from HCGS growth additives).
After 24 hr thereafter, the culture medium was changed to the following culture medium (each 400 μL). • [1] basal medium alone (non-addition group) • [2] basal medium+mEGF (final concentration: 1 ng/mL; positive control group) • [3] basal medium+compound A (final concentration: 0.1 nM, 1 nM, 0.01 μM, 0.1 μM; compound A addition group)
Ethanol (5 μL) was added to 1 mL each of culture media and [2] to uniformly set the ethanol concentration of all culture media to 0.5%.
After 24 hr from the start of the stimulation with compound A, the culture supernatant was removed from each well, and a basal medium added with 10% Cell Counting Kit-8 (DOJINDO) was dispensed to each well by 200 μL. After dispensing, the culture plate was transferred to an incubator set to 37° C., 5% CO2, 95% air and 100% humidity and incubated for 2 hr. The supernatant (100 μL) was transferred to a 96 well culture plate for tissue culture (Corning), and the absorbance of each well at 450 nm was measured with a microplate reader (Dainippon Sumitomo Pharma Co., Ltd.), and used as an index of cell number increase.
The values of the positive control group and the compound A addition group were calculated based on the average absorbance of the non-addition group as 100%, and the non-addition group was compared with the compound A addition group and positive control group according to the Dunnett multiple comparison test (one-tailed). A critical value of less than 5% as a result of the test was judged as significant.

Cc1cc2c(CCc3sc(-c4ccc(C(F)(F)F)cc4)nc3C(C)C)noc2cc1OCC(=O)O [compound A, [3-[2-[4-isopropyl-2-(4-trifluoromethyl)phenyl-5-thiazolyl]ethyl]-5-methyl-1,2-benzisoxazol-6-yl]oxyacetic acid]
effect on cell number of normal human corneal epithelial cells (in words) (0.1 nM-0.1 μM, conclusion of the test): increases the cell number of normal human corneal epithelial cells
cell number increase rate (10^−7 M): 172.6 ± 16.0%
cell number increase rate (10^−8 M): 187.4 ± 10.2%
cell number increase rate (10^−9 M): 169.0 ± 8.2%
cell number increase rate (10^−10 M): 177.4 ± 20.8%
